Data published in PMC9296036, “A peptide interfering with the dimerization of oncogenic KITENIN protein and its stability suppresses colorectal tumour progression” (Clinical and Translational Medicine, 2022).
Ends that are not written are not given here.

Target: T1, KITENIN (Homo sapiens, UniProt Q8TAA9)
T1 construct: decreased endogenous KITENIN protein levels in non‐transfected HCT116 and CT‐26 cells; endogenous in cells; host or cells: HCT116
T1 sequence (Q8TAA9 1-524): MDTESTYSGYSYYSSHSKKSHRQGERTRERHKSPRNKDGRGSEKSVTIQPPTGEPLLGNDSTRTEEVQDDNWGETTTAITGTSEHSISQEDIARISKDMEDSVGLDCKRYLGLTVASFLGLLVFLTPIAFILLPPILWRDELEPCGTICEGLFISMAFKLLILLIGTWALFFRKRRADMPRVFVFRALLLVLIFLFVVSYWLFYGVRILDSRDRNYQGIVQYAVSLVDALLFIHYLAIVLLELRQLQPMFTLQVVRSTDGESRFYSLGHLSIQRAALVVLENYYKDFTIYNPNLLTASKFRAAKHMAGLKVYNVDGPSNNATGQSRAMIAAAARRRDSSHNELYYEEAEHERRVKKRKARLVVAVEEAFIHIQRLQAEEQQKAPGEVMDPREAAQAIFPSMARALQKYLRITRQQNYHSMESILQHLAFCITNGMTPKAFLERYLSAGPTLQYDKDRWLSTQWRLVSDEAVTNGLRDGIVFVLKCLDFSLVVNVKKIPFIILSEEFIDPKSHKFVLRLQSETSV
Test: Endogenous KITENIN protein level in HCT116 cells (immunoblot)
Format: cell-based
Settings: non-transfected HCT116 cells, KDIP 1 μM, 12 h
Excerpt: Antibodies against the following proteins were obtained from the indicated suppliers: Na^+/K^+ ATPase, GFP and tubulin (Santa Cruz Biotechnology); c‐Jun, p‐c‐Jun, ERK, p‐ERK, c‐MET, p‐c‐MET and GST (Cell Signaling Technology); V5, Myc (MBL); HA and β‐actin (Sigma); KITENIN (Atlas); His and RACK1, LC3, p62, Myo10, and eukaryotic elongation factor 2 (eEF2) (Abcam). They were used with appropriate secondary antibodies (Thermo). For transient transfection analyses, Caco2, HCT116 and 293T cells were transfected with various plasmids and harvested for immunoblot analysis 48 h after transfection. For most assays using stable cell lines, mixed polyclonal cells were used to exclude clonal variation. […]
FIGURE 2 KAI1 C‐terminal interacting tetraspanin (KITENIN) dimerization‐interfering peptide (KDIP) suppresses KITENIN‐induced enhanced cell invasion through the inhibition of the homodimerization of KITENIN. […] After 48 h of treatment, KITENIN transcripts in cells were analysed by the 2^−ΔΔ ^CT method using Q‐PCR. […] Caco2 cells were co‐transfected with KITENIN‐V5/Myc and treated with or without KDIP or scrambled peptide (scr) and were immunoprecipitated with anti‐V5 antibody and detected by indicated antibodies. Numerals indicated a quantification of the MYC bands normalized to the corresponding V5 bands (left panel). […] Numerals indicated a quantification of the bands observed (left panel). […]

endogenous KITENIN protein level (in words): decreased
Sequence: YARVRRRGPRRWRLVSDEAV [KDIP]
